# In patent US9708314B2, “Heterocyclic amide compound” (NISSAN CHEMICAL INDUSTRIES, LTD., priority 2013, dated 2017):
# Experiments:
# Format in all cases: in vivo
# [1] = test system: Echinochloa oryzacola Vasing.; assay: Test Example 2: herbicidal activity, application during weed generation in submerged conditions; conditions: Eighteenth Table; application herbicide amount 320 g/ha
# How it was run: (§1)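 Alluvial soil in Wagner pots flooded to 4 cm water depth; seeds sown mixed, grown in greenhouse at 25–30 °C. At one- to two-leaf stage, emulsion diluted with water to the set rate (g/ha) was applied to the water surface. Effect scored 0–5 by herbicidal ratio three weeks later.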
# [2] = test system: Monochoria vaginalis; assay: as above; conditions: Eighteenth Table; application herbicide amount 320 g/ha
# How it was run: as §1
# [3] = test system: Scirpus juncoides; assay: as above; conditions: Eighteenth Table; application herbicide amount 320 g/ha
# How it was run: as §1
# [4] = test system: Brassica campestris L.; assay: Test Example 4: effect on crop by application to foliage (diluvial soil, plastic box); conditions: for g (Brassica campestris L.) effect on crop: application to foliage, application herbicide amount 320 g/ha; for g: Application herbicide amount 320 g/ha, effect on crop
# How it was run: (§2)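 Scores run from 0 (herbicidal ratio ≤5%) to 5 (≥90%, almost fully withered) and were assessed three weeks after foliar spraying. Seedlings had been raised for 14 days at 25-30° C in sterilized diluvial soil before treatment, with the emulsion diluted in water to the stated g/ha dose.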
# [5] = test system: directly sowed Oryza sativa; assay: as above; conditions: for d (directly sowed Oryza sativa) effect on crop: application to foliage, application herbicide amount 320 g/ha; for d: Application herbicide amount 320 g/ha, effect on crop
# How it was run: as §2
# [6] = test system: Triticum aestivum; assay: as above; conditions: for e (Triticum aestivum) effect on crop: application to foliage, application herbicide amount 320 g/ha; for e: Application herbicide amount 320 g/ha, effect on crop
# How it was run: as §2
# [7] = test system: Glycine max; assay: as above; conditions: for c (Glycine max) effect on crop: application to foliage, application herbicide amount 320 g/ha; for c: Application herbicide amount 320 g/ha, effect on crop
# How it was run: as §2
# [8] = test system: Zea mays; assay: as above; conditions: for b (Zea mays) effect on crop: application to foliage, application herbicide amount 320 g/ha; for b: Application herbicide amount 320 g/ha, effect on crop
# How it was run: as §2
# [9] = test system: Beta vulgaris ssp. vulgaris; assay: as above; conditions: for f (Beta vulgaris ssp. vulgaris) effect on crop: application to foliage, application herbicide amount 320 g/ha; for f: Application herbicide amount 320 g/ha, effect on crop
# How it was run: as §2
compound,measurement,setting,value
COCCc1nnc(NC(=O)c2ccc(C(F)(F)F)n3c(C(C)C)nnc23)o1 [1-052],A (Echinochloa oryzicola Vasing.) herbicidal ratio grade,[1],1 (Herbicidal ratio of 5% or more and less than 20%)
same,C (Monochoria vaginalis) herbicidal ratio grade,[2],0 (Herbicidal ratio of 5% or less (almost no effect))
same,B (Scirpus juncoides) herbicidal ratio grade,[3],1 (Herbicidal ratio of 5% or more and less than 20%)
same,g (Brassica campestris L.) effect on crop,[4],3 (Herbicidal ratio of 40% or more and less than 70%)
same,d (directly sowed Oryza sativa) effect on crop,[5],2 (Herbicidal ratio of 20% or more and less than 40%)
same,e (Triticum aestivum) effect on crop,[6],0 (Herbicidal ratio of 5% or less (almost no effect))
same,c (Glycine max) effect on crop,[7],0 (Herbicidal ratio of 5% or less (almost no effect))
same,b (Zea mays) effect on crop,[8],0 (Herbicidal ratio of 5% or less (almost no effect))
same,f (Beta vulgaris ssp. vulgaris) effect on crop,[9],3 (Herbicidal ratio of 40% or more and less than 70%)
Cc1cc(-c2nnc3c(C(=O)Nc4nnc(C)o4)ccc(C(F)(F)F)n23)no1 [1-022],A (Echinochloa oryzicola Vasing.) herbicidal ratio grade,[1],2 (Herbicidal ratio of 20% or more and less than 40%)
same,C (Monochoria vaginalis) herbicidal ratio grade,[2],0 (Herbicidal ratio of 5% or less (almost no effect))
same,B (Scirpus juncoides) herbicidal ratio grade,[3],2 (Herbicidal ratio of 20% or more and less than 40%)
same,g (Brassica campestris L.) effect on crop,[4],2 (Herbicidal ratio of 20% or more and less than 40%)
same,d (directly sowed Oryza sativa) effect on crop,[5],3 (Herbicidal ratio of 40% or more and less than 70%)
same,e (Triticum aestivum) effect on crop,[6],1 (Herbicidal ratio of 5% or more and less than 20%)
same,c (Glycine max) effect on crop,[7],2 (Herbicidal ratio of 20% or more and less than 40%)
same,b (Zea mays) effect on crop,[8],0 (Herbicidal ratio of 5% or less (almost no effect))
same,f (Beta vulgaris ssp. vulgaris) effect on crop,[9],4 (Herbicidal ratio of 70% or more and less than 90%)
CCOC(=O)Cc1nnc2c(C(=O)Nc3nnc(C)o3)ccc(C(F)(F)F)n12 [1-042],A (Echinochloa oryzicola Vasing.) herbicidal ratio grade,[1],1 (Herbicidal ratio of 5% or more and less than 20%)
same,C (Monochoria vaginalis) herbicidal ratio grade,[2],3 (Herbicidal ratio of 40% or more and less than 70%)
same,B (Scirpus juncoides) herbicidal ratio grade,[3],2 (Herbicidal ratio of 20% or more and less than 40%)
same,g (Brassica campestris L.) effect on crop,[4],3 (Herbicidal ratio of 40% or more and less than 70%)
same,d (directly sowed Oryza sativa) effect on crop,[5],3 (Herbicidal ratio of 40% or more and less than 70%)
same,e (Triticum aestivum) effect on crop,[6],0 (Herbicidal ratio of 5% or less (almost no effect))
same,c (Glycine max) effect on crop,[7],1 (Herbicidal ratio of 5% or more and less than 20%)
same,b (Zea mays) effect on crop,[8],0 (Herbicidal ratio of 5% or less (almost no effect))
same,f (Beta vulgaris ssp. vulgaris) effect on crop,[9],5 (Herbicidal ratio of 90% or more (almost completely withered))
CCC(CC)c1nnc2c(C(=O)Nc3nnc(C)o3)ccc(C(F)(F)F)n12 [1-011],A (Echinochloa oryzicola Vasing.) herbicidal ratio grade,[1],5 (Herbicidal ratio of 90% or more (almost completely withered))
same,C (Monochoria vaginalis) herbicidal ratio grade,[2],3 (Herbicidal ratio of 40% or more and less than 70%)
same,B (Scirpus juncoides) herbicidal ratio grade,[3],3 (Herbicidal ratio of 40% or more and less than 70%)
same,g (Brassica campestris L.) effect on crop,[4],3 (Herbicidal ratio of 40% or more and less than 70%)
same,d (directly sowed Oryza sativa) effect on crop,[5],4 (Herbicidal ratio of 70% or more and less than 90%)
same,e (Triticum aestivum) effect on crop,[6],0 (Herbicidal ratio of 5% or less (almost no effect))
same,c (Glycine max) effect on crop,[7],3 (Herbicidal ratio of 40% or more and less than 70%)
same,b (Zea mays) effect on crop,[8],0 (Herbicidal ratio of 5% or less (almost no effect))
same,f (Beta vulgaris ssp. vulgaris) effect on crop,[9],5 (Herbicidal ratio of 90% or more (almost completely withered))
Cc1nnc(NC(=O)c2ccc(C(F)(F)F)n3c(-c4cc(Cl)cc(Cl)c4)nnc23)o1 [1-071],A (Echinochloa oryzicola Vasing.) herbicidal ratio grade,[1],3 (Herbicidal ratio of 40% or more and less than 70%)
same,C (Monochoria vaginalis) herbicidal ratio grade,[2],4 (Herbicidal ratio of 70% or more and less than 90%)
same,B (Scirpus juncoides) herbicidal ratio grade,[3],5 (Herbicidal ratio of 90% or more (almost completely withered))
same,g,[4],0 (Herbicidal ratio of 5% or less (almost no effect))
same,d,[5],0 (Herbicidal ratio of 5% or less (almost no effect))
same,e,[6],0 (Herbicidal ratio of 5% or less (almost no effect))
same,c,[7],0 (Herbicidal ratio of 5% or less (almost no effect))
same,b,[8],0 (Herbicidal ratio of 5% or less (almost no effect))
same,f,[9],2 (Herbicidal ratio of 20% or more and less than 40%)
Cc1nnc(NC(=O)c2ccc(C(F)(F)F)n3c(CCS(C)(=O)=O)nnc23)o1 [1-085],A (Echinochloa oryzicola Vasing.) herbicidal ratio grade,[1],3 (Herbicidal ratio of 40% or more and less than 70%)
same,C (Monochoria vaginalis) herbicidal ratio grade,[2],2 (Herbicidal ratio of 20% or more and less than 40%)
same,B (Scirpus juncoides) herbicidal ratio grade,[3],2 (Herbicidal ratio of 20% or more and less than 40%)
same,g,[4],4 (Herbicidal ratio of 70% or more and less than 90%)
same,d,[5],4 (Herbicidal ratio of 70% or more and less than 90%)
same,e,[6],3 (Herbicidal ratio of 40% or more and less than 70%)
same,c,[7],3 (Herbicidal ratio of 40% or more and less than 70%)
same,b,[8],3 (Herbicidal ratio of 40% or more and less than 70%)
same,f,[9],4 (Herbicidal ratio of 70% or more and less than 90%)
Cc1nnc(NC(=O)c2ccc(C(F)(F)F)n3c(N(C)c4ccccc4)nnc23)o1 [1-086],A (Echinochloa oryzicola Vasing.) herbicidal ratio grade,[1],4 (Herbicidal ratio of 70% or more and less than 90%)
same,C (Monochoria vaginalis) herbicidal ratio grade,[2],4 (Herbicidal ratio of 70% or more and less than 90%)
same,B (Scirpus juncoides) herbicidal ratio grade,[3],4 (Herbicidal ratio of 70% or more and less than 90%)
same,g,[4],4 (Herbicidal ratio of 70% or more and less than 90%)
same,d,[5],1 (Herbicidal ratio of 5% or more and less than 20%)
same,e,[6],0 (Herbicidal ratio of 5% or less (almost no effect))
same,c,[7],1 (Herbicidal ratio of 5% or more and less than 20%)
same,b,[8],1 (Herbicidal ratio of 5% or more and less than 20%)
same,f,[9],5 (Herbicidal ratio of 90% or more (almost completely withered))
COc1ccc(-c2nnc3c(C(=O)Nc4nnc(C)o4)ccc(C(F)(F)F)n23)cc1 [1-016],A (Echinochloa oryzicola Vasing.) herbicidal ratio grade,[1],3 (Herbicidal ratio of 40% or more and less than 70%)
same,C (Monochoria vaginalis) herbicidal ratio grade,[2],0 (Herbicidal ratio of 5% or less (almost no effect))
same,B (Scirpus juncoides) herbicidal ratio grade,[3],0 (Herbicidal ratio of 5% or less (almost no effect))
same,g (Brassica campestris L.) effect on crop,[4],3 (Herbicidal ratio of 40% or more and less than 70%)
same,d (directly sowed Oryza sativa) effect on crop,[5],0 (Herbicidal ratio of 5% or less (almost no effect))
same,e (Triticum aestivum) effect on crop,[6],0 (Herbicidal ratio of 5% or less (almost no effect))
same,c (Glycine max) effect on crop,[7],0 (Herbicidal ratio of 5% or less (almost no effect))
same,b (Zea mays) effect on crop,[8],0 (Herbicidal ratio of 5% or less (almost no effect))
same,f (Beta vulgaris ssp. vulgaris) effect on crop,[9],5 (Herbicidal ratio of 90% or more (almost completely withered))
Cc1nnc(NC(=O)c2ccc(C(F)(F)F)n3c(-c4ccc(F)cc4)nnc23)o1 [1-044],A (Echinochloa oryzicola Vasing.) herbicidal ratio grade,[1],2 (Herbicidal ratio of 20% or more and less than 40%)
same,C (Monochoria vaginalis) herbicidal ratio grade,[2],2 (Herbicidal ratio of 20% or more and less than 40%)
same,B (Scirpus juncoides) herbicidal ratio grade,[3],3 (Herbicidal ratio of 40% or more and less than 70%)
same,g (Brassica campestris L.) effect on crop,[4],4 (Herbicidal ratio of 70% or more and less than 90%)
same,d (directly sowed Oryza sativa) effect on crop,[5],3 (Herbicidal ratio of 40% or more and less than 70%)
same,e (Triticum aestivum) effect on crop,[6],0 (Herbicidal ratio of 5% or less (almost no effect))
same,c (Glycine max) effect on crop,[7],0 (Herbicidal ratio of 5% or less (almost no effect))
same,b (Zea mays) effect on crop,[8],0 (Herbicidal ratio of 5% or less (almost no effect))
same,f (Beta vulgaris ssp. vulgaris) effect on crop,[9],5 (Herbicidal ratio of 90% or more (almost completely withered))
